Experimental data taken from paper PMC11617094 (Molecular Biology of the Cell, 2024).

Key:
[1] = biological target: T1, Alp7A (Bacillus subtilis, UniProt C7F6X5); experiment: EnzChek phosphate release (ATPase on polymerization); format: biochemical; details: 10 mM ATP/Mg, 25 mM Tris pH 7.5, 100 mM KCl, 1 mM MgCl2, 1 mM DTT; no Alp7R
T1 construct: untagged native Alp7A encoded by plasmid pLS20, codon-optimised gene in pET28a (NcoI/HindIII), expressed in E. coli C43, purified by a polymerization cycle and gel filtration; forms two-stranded filaments
T1 sequence (C7F6X5 1-391): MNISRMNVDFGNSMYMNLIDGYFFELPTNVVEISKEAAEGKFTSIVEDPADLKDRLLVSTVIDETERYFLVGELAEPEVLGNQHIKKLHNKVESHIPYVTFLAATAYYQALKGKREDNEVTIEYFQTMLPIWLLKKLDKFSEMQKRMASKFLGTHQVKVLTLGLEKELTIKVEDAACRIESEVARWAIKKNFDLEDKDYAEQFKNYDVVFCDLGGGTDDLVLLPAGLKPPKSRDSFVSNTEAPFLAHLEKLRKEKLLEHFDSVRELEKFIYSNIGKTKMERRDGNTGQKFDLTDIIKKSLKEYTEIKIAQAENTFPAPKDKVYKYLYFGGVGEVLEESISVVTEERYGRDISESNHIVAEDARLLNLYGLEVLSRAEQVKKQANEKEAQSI

[2] = biological target: T2, Alp7A (Bacillus subtilis, UniProt C7F6X5, E180A); experiment: right-angle light scattering of ATP-induced polymerization; phosphate release; details: Mg-ATP 3 mM (polymerization) or 10 mM (phosphate release), 25 mM Tris pH 7.5, 100 mM KCl, 1 mM MgCl2, 1 mM DTT; nucleotide-binding pocket mutant
T2 construct: untagged native Alp7A encoded by plasmid pLS20, codon-optimised gene in pET28a (NcoI/HindIII), expressed in E. coli C43, purified by a polymerization cycle and gel filtration; forms two-stranded filaments

[3] = biological target: Alp7A (wild type, native, unlabelled) (Bacillus subtilis (plasmid pLS20)) (UniProt C7F6X5)
[4] = biological target: the molecule itself; experiment: negative-stain electron microscopy; polymers formed with 3 mM ATP/Mg++, adsorbed to carbon-coated grids, 0.75% uranyl formate; buffer as for light scattering

In the case of `Nc1ncnc2c1ncn2[C@@H]1O[C@H](COP(=O)(O)OP(=O)(O)OP(=O)(O)O)[C@@H](O)[C@H]1O` [ATP], the “EnzChek phosphate release (ATPase on polymerization)” value [1] is reported as “phosphate dissociates rapidly from wild-type Alp7A polymers” and the “right-angle light scattering of ATP-induced polymerization; phosphate release” value [2] is reported as “addition of Mg-ATP to purified Alp7A-E180A induces formation of stable polymers”.

“Alp7A (wild type, native, unlabelled) (from UniProt C7F6X5 1-391) (natural protein)” showed a concentration threshold of the specific ATPase activity (steady-state phosphate release) of Alp7A, taken as the critical concentration for elongation (ccE) [3] of 0.6 µM.

B1: Alp7A-E180A (hydrolysis-dead mutant, unlabelled) (natural protein, Bacillus subtilis (plasmid pLS20), UniProt C7F6X5 1-391, looked up)
chain: MNISRMNVDFGNSMYMNLIDGYFFELPTNVVEISKEAAEGKFTSIVEDPADLKDRLLVSTVIDETERYFLVGELAEPEVLGNQHIKKLHNKVESHIPYVTFLAATAYYQALKGKREDNEVTIEYFQTMLPIWLLKKLDKFSEMQKRMASKFLGTHQVKVLTLGLEKELTIKVEDAACRIASEVARWAIKKNFDLEDKDYAEQFKNYDVVFCDLGGGTDDLVLLPAGLKPPKSRDSFVSNTEAPFLAHLEKLRKEKLLEHFDSVRELEKFIYSNIGKTKMERRDGNTGQKFDLTDIIKKSLKEYTEIKIAQAENTFPAPKDKVYKYLYFGGVGEVLEESISVVTEERYGRDISESNHIVAEDARLLNLYGLEVLSRAEQVKKQANEKEAQSI
B1: binds [4].
